From ChEMBL document CHEMBL1136203, “Liquid-phase synthesis of a pegylated adenosine-oligoarginine conjugate, cell-permeable inhibitor of cAMP-dependent protein kinase” (Bioorg Med Chem Lett, 2003)
pIC50: −log10 of the molar value. Square brackets hold non-standard residues; d marks the D form. Peptide text beside a SMILES is read from it. * marks the point of attachment. ξ: configuration not given here. Adenosine(5'-uronoyl) = Nc1ncnc2c1ncn2[C@@H]1O[C@H](C(=O)*)[C@@H](O)[C@H]1O; Biotin = O=C1N[C@H]2[C@H](CS[C@H]2CCCCC(=O)*)N1; NHCH2CH2OCH2CH2OMe = COCCOCCN*; NH(CH2)6NH2 = NCCCCCCN*; ξK = NCCCCC(N)C(=O)O; Ahx = NCCCCCC(=O)O

Experiment: Inhibition of cAMP dependent Protein kinase A (PKA) catalytic subunit from bovine heart
Parameters: species or system Bos taurus

pIC50 | Structure (SMILES)
6.87 | O=S(=O)(NCCNC/C=C/c1ccc(Br)cc1)c1cccc2cnccc12
6.17 | NCCCCCCNC(=O)[C@H](CCCN=C(N)N)NC(=O)[C@H](CCCN=C(N)N)NC(=O)[C@H](CCCN=C(N)N)NC(=O)[C@H](CCCN=C(N)N)NC(=O)CCCCCNC(=O)[C@H]1O[C@@H](n2cnc3c(N)ncnc32)[C@H](O)[C@@H]1O ({Adenosine(5'-uronoyl)-Ahx}-RRRR-{NH(CH2)6NH2})
5.92 | COCCOCCNC(=O)C(CCCCNC(=O)CCCC[C@@H]1SC[C@@H]2NC(=O)N[C@@H]21)NC(=O)[C@H](CCCN=C(N)N)NC(=O)[C@H](CCCN=C(N)N)NC(=O)[C@H](CCCN=C(N)N)NC(=O)[C@H](CCCN=C(N)N)NC(=O)CCCCCNC(=O)[C@H]1O[C@@H](n2cnc3c(N)ncnc32)[C@H](O)[C@@H]1O (stereo not given in full) ({Adenosine(5'-uronoyl)-Ahx}-RRRR[ξK](Biotin)-NHCH2CH2OCH2CH2OMe)
6.34 | COCCOCCNC(=O)C(CCCCN)NC(=O)[C@H](CCCN=C(N)N)NC(=O)[C@H](CCCN=C(N)N)NC(=O)[C@H](CCCN=C(N)N)NC(=O)[C@H](CCCN=C(N)N)NC(=O)CCCCCNC(=O)[C@H]1O[C@@H](n2cnc3c(N)ncnc32)[C@H](O)[C@@H]1O (stereo not given in full) ({Adenosine(5'-uronoyl)-Ahx}-RRRR[ξK]-NHCH2CH2OCH2CH2OMe)

Structure (SMILES) | pIC50
N=C(N)NCCC[C@H](NC(=O)[C@H](CCCNC(=N)N)NC(=O)[C@H](CCCNC(=N)N)NC(=O)[C@H](CCCNC(=N)N)NC(=O)[C@H](CCCNC(=N)N)NC(=O)[C@H](CCCNC(=N)N)NC(=O)CCCCCNC(=O)[C@H]1O[C@@H](n2cnc3c(N)ncnc32)[C@H](O)[C@@H]1O)C(=O)O | 6.15
